# Where no end group is shown, it is not given here.
# Columns and labels:
# [1] = tested on: arachidonic acid induced ear inflammation; test: arachidonic acid induced ear inflammation in mice (ear thickness/edema); assay type: in vivo, C57BL/6 female mice; conditions: ip 1 hour prior to arachidonic acid; ear thickness 1 hour post challenge; FIGS. 1 and 2
# Method: A stock solution of 5 mgml of example 1 was prepared in D-PBS. The Analog 1 consists of 88.1% active peptide and the calculations were adjusted to compensate for the activity of the Analog 1. Serial dilutions were then made resulting in solutions of appropriate doses of Analog 1 in 0.2 ml. The animals were injected ip with 0.2 ml of the appropriate solution 1 hour prior to arachidonic acid application. The study consisted of various dosage groups as well as excipient groups. The animals used for the study were C57BL/6 female mice, which were obtained from Jackson Laboratories (age 8 weeks and weight 15-18 g). The mice were housed in conventional cages, fed pelleted food and given water ad libitum. The arachidonic acid (Sigma Lot #42H7817) was dissolved in methyl alcohol resulting in a final concentration of 2 mg/20 μl. […] One hour post challenge, the test and control ears were measured for thickness using a Mitutoyo No. 7300 gauge caliper. The thickness was recorded in units of 0.001 inches. […] The effect of Analog 1, which is on IL-8 low molecular weight peptide analog residue 6-19 on arachidonic acid induced ear inflammation was evaluated in vivo, according to the methods described in Example II. In this model, the application of arachidonic acid to the pinna of mice induces an immediate PMN-associated erythema and edema which may be measured by change in thickness. […]
# [2] = tested on: neutrophils (PMNs); test: IL-8 induced Ca release in Fluo-3 loaded neutrophils, flow cytometry; assay type: cell-based, human; conditions: PMNs pre-incubated with analog at 10^-6 M; IL-8 10^-6 M; FIG. 6
# Method: Polymorphonuclear leukocytes (≥95% neutrophils, PMNs) were isolated from heparinized (10 μ/ml) blood collected from healthy volunteers. Erythrocytes were removed by 6% dextran sedimentation for 30 minutes at room temperature, and then the supernatant was subjected to Ficoll (Ficoll-Papque, Pharmacia LKB, Uppsala, Sweden) density gradient centrifugation. PMNs were obtained from the pellet. Contaminated erythrocytes were eliminated by one cycle of hypotonic lysis. After an additional washing step the cells were counted and adjusted to a final concentration of 5×10^6 /ml in RPMI 1640 (Gibco, Grand Island, N.Y.).
# The loading procedure with Fluo-3 (Molecular Probes, Eugene, Oreg.) was carried out with PMNs suspended at a density of 5×10^6 /ml in fresh RPMI 1640 containing 2.0 μM Fluo-3 AM (prediluted in dimethyl sulfoxide; Sigma Chemicals) in polypropylene tubes (Falcon 2063, Becton Dickinson). We incubated the PMNs for 25 minutes at 37 degrees C in a 5% CO2 incubator. […]
# Before addition of the stimuli the fluorescence channel of the FACScan Plus (Becton Dickinson) was adjusted to find the basal fluorescence level of loaded but unstimulated PMNs. The samples were excited by an argon laser at 488 nm and emission was measured at 525 nm (green fluorescence, channel FL1). […] The fluorescence of Fluo-3-loaded cells was measured in arbitrary fluorescence units of mean channel fluorescence (channel FL1). […]
# [3] = tested on: IL-8; test: activity of IL-8 analog compared to analog 1 (test not specified); design: species or system human; conditions: C-terminally truncated (residues 6 to 16)
# Method: The biological activity of an analog of the invention is determined by blocking with the analog an activity with naturally occurring IL-8.
sequence,measurement,setting,value
RCQCIKTYSKPFHPK (cysteine pairing not given here) [Analog 1],EC-50 for blocking edema,[1],~1 μg/animal
same,block of Ca signal transduction induced by IL-8,[2],blocked the Ca signal transduction
"RCQCLQTLQGIHPK (cysteine pairing not given here) [Analog 2, Derived from Alpha Chemokine GRO (MGSA); b140 describes it as IL-8 residues 6 to 16]",activity compared to analog 1,[3],slight loss of activity
